Reference: US5208223A, “Phosphocholine derivative inhibitors of phospholipase A2” (American Cyanamid Company, priority 1992, dated 1993)
Counter-ions that a name gives are not always drawn. Like-named read-outs stand apart in the source and are kept apart here.

Tests used:
porcine pancreatic PLA2 [1] = biological target: T1, porcine pancreatic PLA2 (Sus scrofa, UniProt P00592); assay: PLA2 assay: in vitro porcine pancreatic phospholipase A2, preincubation of drug+enzyme, substrate 2 nM; assay type: biochemical; conditions: preincubation, subs. con. 2; for IC50: read-out: IC50 (converted)
T1 construct: purchased Sigma
Procedure: (§1) Phospholipase A2 activity was measured by a radiochemical assay in which labeled synthetic phosphatidylcholine substrate is converted by porcine pancreatic PLA2 to free radiolabeled arachidonate and lyso PC. Radiolabeled arachidonate is extracted from the reaction mixture and separated from unreacted substrate by column chromatography or TLC. Radioactivity (cpm) in samples is quantitated by liquid scintillation counting. Specific details are as follows:
(§2) Labeled substrate(1-stearyl-2-^3 H-arachidonylphosphatidylcholine; Amersham, sp. act. 84 (uCi/mmole, 0.025 to 0.2 uCi/assay tube and unlabeled substrates (Avanti), in sufficient quantity to give 20,000 cpm to 50,000 cpm and 10 μM to 1,000 μM final concentration/assay tube are dried under a stream of nitrogen. The PLA2 and mPLA2 assays utilized a […] substrate concentration. The mHPLA2 and HPLA2 assays (vida infra) utilized a 10 μM substrate concentration and the SmPLA2 assay utilized a substrate concentration ranging from 100 to 1000 μm. The substrate is then redissolved in 0.1M tris-HCl buffer, pH 9.0 containing 10 mM CaCl2 and 10 mM Na taurocholate detergent. The mixture is sonicated in a Kontes Sonifier to yield a homogeneous dispersion. The "mixed" micellar substrate is clear. An aliquot is reserved for a cpm count (total substrate). The total reaction volume is 500 μL; siliconized glassware or plasticware is used throughout. Enzyme (Sigma, sp. act.>690 U/mg protein and preferably 900 U/mg protein) is diluted 1:750 or 1:1000 in 0.1M tris-HCl buffer, pH 9.0 (without Ca^++ and detergent). Enzyme dilution depends on substrate concentration and required enzyme concentration.
(§3) The substrate in buffer is kept on ice until the reaction is started. The reaction is started by adding 10 μL of diluted enzyme solution to 490 μL of micellar substrate solution. Samples are incubated in a 37° C. water bath for 15 minutes with gentle mixing. The reaction is terminated by the addition of 100 μL of 1M fresh trichloroacetic acid (TCA) solution and chilling the tubes on ice for 30 minutes.
(§4) Samples (600 μL) are extracted with 3 ml CHCl3 /MeOH (2:1) for thin layer chromatography or in hexane/ether (9:1) for column chromatography. The phases are separated by gentle centrifugation at 700 rpm×5'. The organic phase is recovered.
(§5) Labeled arachidonate extracted with CHCl3 /MeOH is separated on silica gel G TLC plates (Analtech). Twenty μL of a 2 mg/ml internal standard solution of arachidonic acid (Sigma) is combined with 2-3 ml of the organic phase. The entire mixture is dried under nitrogen and redissolved in 50 μL of CHCl3 /MeOH (2:1). A 20 μL sample is counted in 10 ml of Beckman Redi-solv HP and spotted on silica gel G plates. The solvent system used to develop the plate is CHCl3 /MeOH/13.5N NH3 /H2 O (70:30:4:1). Plates are developed in a glass chamber for 1-11/2 hours, air dried, and the spots visualized in an iodine vapor chamber. Standards of phosphatidylcholine, lyso PC, and arachidonic acid (Sigma) are made as 2 mg/ml stocks in CHCl3 /MeOH (2:1) and spotted on plates. Spots corresponding to arachidonate and phospholipid are scraped and counted in 10 ml Beckman Redi-Solv HP scintillation fluid.
(§6) Samples are extracted with hexane/ether and the upper organic phase recovered. An aliquot is applied to a Silicar CC4 (Malincrodt) column. Columns are prepared using 1 ml of a 1:1 slurry of silicar CC4 in hexane/ether in a Pasteur pipet (approx. 2 cm height). Columns are rinsed with 500 μL of hexane/ether before adding the sample (300-600 μL) to the column. Columns are eluted with a total of 6 ml of hexane/ether. The 6 ml sample is counted in 10 ml of Beckman Redi-Solv HP scintillation fluid.
or the phospholipase A2 assay, compounds are prepared as 1 mg/ml stock solutions in MeOH and diluted appropriately in PBS.

porcine pancreatic PLA2 [2] = biological target: T1, porcine pancreatic PLA2; assay: MHPLA2 assay: in vitro porcine pancreatic phospholipase A2, mixed micelle design, [s]=10 μm; assay type: biochemical; conditions: dose 25 μ/ml, subs. con. 10
Procedure: as §1, §2, §3, §4, §5, §6
or the phospholipase A2 assay, compounds are prepared as 1 mg/ml stock solutions in MeOH and diluted appropriately in PBS. […]

[3] = dose 10 μ/ml, read-out: % Inh. Avg.

T1 sequence (P00592 23-146): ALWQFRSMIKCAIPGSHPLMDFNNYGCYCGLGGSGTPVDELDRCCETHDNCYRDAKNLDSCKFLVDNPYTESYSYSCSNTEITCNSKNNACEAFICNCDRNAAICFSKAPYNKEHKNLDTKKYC

Row | SMILES | inhibition at 10 µg/mL (porcine pancreatic PLA2 [1]; [3]) [%] | IC50 (porcine pancreatic PLA2 [1]) [µM] | inhibition at 10 µg/mL (porcine pancreatic PLA2 [1]; dose 10 μ/ml, read-out: % Inh.) [%] | inhibition at 20 µg/mL (porcine pancreatic PLA2 [1]; dose 20 μ/ml, read-out: % Inh.) [%] | also measured
1 | CCCCCCCCCCCCCCCCOC[C@H](COP(=O)([O-])OCC[N+](C)(C)C)OP(=O)(OC)OCCCCCCCCCCCCCCCC (single isomer, unassigned) | 22 | 17.1 | – | – | inhibition at 20 µg/mL (porcine pancreatic PLA2 [1]; dose 20 μ/ml, read-out: % Inh. Avg.): 34%
2 | CCCCCCCCCCCCCCCCOC[C@@H](COP(=O)([O-])OCC[N+](C)(C)C)OP(=O)(OC)OCCCCCCCCCCCCCCCC (single isomer, unassigned) | – | 4.12 | – | – | inhibition at 25 µg/mL (porcine pancreatic PLA2 [1]; dose 25 μ/ml, read-out: % Inh.): 91%
3 | CCCCCCCCCCCCCCCCOC[C@H](COP(=O)([O-])OCC[N+](C)(C)C)OP(=O)(OC)OCCCCCCCCCCCCCCCC (single isomer, unassigned) [3,5,8,10-Tetraoxa-4,9-diphosphahexacosan-1-aminium, 7-[(hexa] | – | – | – | – | % Inh. Avg. (porcine pancreatic PLA2 [1]; dose 20 μ/ml): 28%
4 | CCCCCCCCCCCCCCCCOC[C@@H](COP(=O)([O-])OCC[N+](C)(C)C)OP(=O)(OC)OCCCCCCCCCCCCCCCC (single isomer, unassigned) [3,5,8,10-Tetraoxa-4,9-diphosphahexacosan-1-aminium, 7-[(hexa] | – | – | – | – | % Inh. (porcine pancreatic PLA2 [2]): 0%
5 | CCCCCCCCCCCCCCCCOCC(COP(=O)([O-])OCC[N+](C)(C)C)OP(=O)(OC)OCCCCC (single isomer, unassigned) [3,5,8,10-Tetraoxa-4,9-diphosphapentadecan-1-aminium, 7-[(hex] [3,5,8,10-Tetraoxa-4,9-diphosphapentadecan-1-aminium, 7-[(hexadecyloxy)methyl]-4-hydroxy-9-methoxy-N,N,N-trimethyl-, hydroxide, 4-(inner salt), 4,9-dioxide, less polar isomer] | – | – | – | – | % Inh. (porcine pancreatic PLA2 [2]): STIM
6 | CCCCCCCCCCCCCCCCOCC(COP(=O)([O-])OCC[N+](C)(C)C)OP(=O)(OC)OCCCCC (single isomer, unassigned) [3,5,8,10-Tetraoxa-4,9-diphosphapentadecan-1-aminium, 7-[(hexadecyloxy)methyl]-4-hydroxy-9-methoxy-N,N,N-trimethyl-, hydroxide, 4-(inner salt), 4,9-dioxide, less polar isomer] | – | 8.05 | 76 | 83 | –
7 | CCCCCCCCCCCCCCCCOCC(COP(=O)([O-])OCC[N+](C)(C)C)CC(O)CCCCCCCCCCCCCCCC (single isomer, unassigned) [4-Hydroxy-7-(2-hydroxyoctadecyl)-N,N,N-trimethyl-3,5,9-triox] [4-Hydroxy-7-(2-hydroxyoctadecyl)-N,N,N-trimethyl-3,5,9-trioxa-4-phosphapentacosan-1-aminium, hydroxide, inner salt, 4-oxide isomer] | – | – | – | – | % Inh. (porcine pancreatic PLA2 [1]; dose 10 μ/ml): 80%
8 | CCCCCCCCCCCCCCCCOCC(COP(=O)([O-])OCC[N+](C)(C)C)CC(O)CCCCCCCCCCCCCCCC (single isomer, unassigned) [4-Hydroxy-7-(2-hydroxyoctadecyl)-N,N,N-trimethyl-3,5,9-trioxa-4-phosphapentacosan-1-aminium, hydroxide, inner salt, 4-oxide isomer] | – | 2.32 | – | – | –
9 | CCCCCCCCCCCCCCCCOP(=O)(OC)OCCOP(=O)(O)OCCBr (centres unmarked) [2-[[(2-Bromoethoxy)hydroxyphosphinyl]oxy]ethyl hexadecyl phosphoric acid, methyl ester] | 21 | – | – | – | –
10 | CCCCCCCCCCCCCCCCOCC(COP(=O)([O-])OCC[N+](C)(C)C)OP(=O)(OC)OCCCCCCCCCCCCCCCC (centres unmarked) [3,5,8,10-Tetraoxa-4,9-diphosphahexacosan-1-aminium, 7-[(hexa] [3,5,8,10-Tetraoxa-4,9-diphosphahexacosan-1-aminium, 7-[(hexadecyloxy)methyl]-4-hydroxy-9-methoxy-N,N,N-trimethyl-, hydroxide, inner salt, 4,9-dioxide] | – | – | – | – | % Inh. Avg. (porcine pancreatic PLA2 [1]; dose 10 μ/ml): 30%; % Inh. Avg. (porcine pancreatic PLA2 [1]; dose 25 μ/ml): 75%; % Inh. Avg. (porcine pancreatic PLA2 [1]; dose 50 μ/ml): 77%
11 | CCCCCCCCCCCCCCCCOCC(COP(=O)([O-])OCC[N+](C)(C)C)CC(C)(O)CCCCCCCCCCCCCCCC (centres unmarked) [4-Hydroxy-7-(2-hydroxy-2-methyloctadecyl)-N,N,N-trimethyl-3,5,9-trioxa-4-phosphapentacosan-1-aminium, hydroxide, inner salt, 4-oxide] | 64 | 7.89 | 65 | 66 | –
12 | CCCCCCCCCCCCCCCCOCC(COP(=O)([O-])OCC[N+](C)(C)C)CC1(CCCCCCCCCCCCCCCC)CO1 (centres unmarked) [7-[(2-Hexadecyloxiranyl)methyl]-4-hydroxy-N,N,N-trimethyl-3,5,9-trioxa-4-phosphapentacosan-1-aminium, hydroxide, inner salt, 4-oxide] | – | 2.41 | 78 | 75 | –

Further lines, with some results ahead:

Row | inhibition at 10 µg/mL (porcine pancreatic PLA2 [1]; [3]) [%] | IC50 (porcine pancreatic PLA2 [1]) [µM] | inhibition at 10 µg/mL (porcine pancreatic PLA2 [1]; dose 10 μ/ml, read-out: % Inh.) [%] | inhibition at 20 µg/mL (porcine pancreatic PLA2 [1]; dose 20 μ/ml, read-out: % Inh.) [%] | SMILES | also measured
13 | – | 2.18 | 80 | 80 | CCCCCCCCCCCCCCCCOCC(COP(=O)([O-])OCC[N+](C)(C)C)CC(O)CCCCCCCCCCCCCCCC (single isomer, unassigned) [4-Hydroxy-7-(2-hydroxyoctadecyl)-N,N,N-trimethyl-3,5,9-trioxa-4-phosphapentacosan-1-aminium, hydroxide, inner salt, 4-oxide] | –
14 | 20 | – | – | – | CCCCCCCCCCCCCCCCOP(=O)(O)OCCOP(=O)([O-])OCC[N+](C)(C)C [3,9-Dihydroxy-N,N,N-trimethyl-3,5,8,10-tetraoxa-4,9-diphosphahexacosan-1-aminium, hydroxide, 4-(inner salt) 4,9-dioxide] | –
15 | 40 | – | – | – | CCCCCCCCCCCCCCCCCCOP(=O)(O)OCCOP(=O)([O-])OCC[N+](C)(C)C [4,9-Dihydroxy-N,N,N-trimethyl-3,5,8,10-tetraoxa-4,9-diphosphaoctacosan-1-aminium, hydroxide, 4-(inner salt), 4,9-dioxide] | –
16 | 62 | 5.2 | 59 | 52 | C=C(CCCCCCCCCCCCCCCC)CC(COCCCCCCCCCCCCCCCC)COP(=O)([O-])OCC[N+](C)(C)C (centres unmarked) [4-Hydroxy-N,N,N-trimethyl-7-(2-methyleneoctadecyl)-3,5,9-trioxa-4-phosphaoentacosan-1-aminium, hydroxide, inner salt, 4-oxide] | –
17 | 43 | 26 | 47 | 62 | CCCCCCCCCCCCCCCCOCC(CC=O)COP(=O)([O-])OCC[N+](C)(C)C (centres unmarked) [4-Hydroxy-N,N,N-trimethyl-7-(2-oxoethyl)-3,5,9-trioxa-4-phosphapentacosan-1-aminium, hydroxide, inner salt, 4-oxide] | –
18 | 60 | 7.92 | 59 | 62 | CCCCCCCCCCCCCCCCOCC(COP(=O)([O-])OCC[N+](C)(C)C)CC(=O)CCCCCCCCCCCCCCCC (centres unmarked) [4-Hydroxy-N,N,N-trimethyl-7-(2-oxooctadecyl)-3,5,9-trioxa-4-phosphapentacosan-1-aminium, hydroxide inner salt, 4 oxide] | –
